Laboratory results: patent publication US9233099B2, “Methods of treating cognitive dysfunction by modulating brain energy metabolism” (University of Cincinnati, priority 2012, dated 2016)

Columns and labels:
[1] = system: person with X-linked creatine transporter deficiency (CTD); experiment: Creatine treatment of a child with X-linked creatine transporter deficiency; format: in vivo, human; settings: increasing doses to 750 mg/kg/day, discontinued after 6 months
Description: This example illustrates that administration of creatine to a person with X-linked creatine transporter deficiency (CTD) fails to increase brain creatine or to ameliorate clinical symptoms associated with decreased brain levels of creatine. […] Several female family members were identified as heterozygote carriers of this disorder, and appear to have decreased Cr. The child had severe expressive dysphasia with other cognitive functions less affected. […] In the absence of demonstrable benefit, the creatine treatment was discontinued after 6 months.

CRT KO mice [2] = experiment: Novel Object Recognition test; format: in vivo; settings: before and after 9-week supplementation, 0.286 mg/g body weight/day
Description: Regarding FIG. 3, CRT brain-specific knockout male mice (CRT′ or CRT KO mice) and their control littermates (CrTf1″5″) were generated by the methods known in the art (e.g., by using the Cre-lox system and homologous recombination as described in Sauer B., Methods, 1998, 14, 381-392; the strategy for targeting the gene deletion to the brain region was based on the data described in Casanova E. et al., Genesis 2001, 31, 37-42). […] A total 29 CRT KO male mice (CRT^/y) and 28 control male mice (CRT^flox/y) at 12 months of age were used in the cyclocreatine supplementation study. The mice were randomly assigned to one of three groups that were started on one of three treatments for 9 weeks: 1) cyclocreatine (C-Cr, CRT KO=7, control=5), 2) creatine (Cr, CRT KO=5, control=5), and 3) maltodextrine as placebo (P, CRT KO=5, control=5). Each treatment drug was supplied in the drinking water and the concentration was adjusted to 0.286 mg/g body weight/day, corresponding to the standard dose of creatine for human subjects (20 g/70 kg body weight/day). Short-term memory of CRT KO mice and their control littermates before and after 9-week cyclocreatine supplementation was measured using the Novel Object Recognition test that is routinely used in the art for evaluation of cognition in rodent models of the disorders of the central nervous system. […]

creatine transporter = biological target: T1, creatine transporter (Homo sapiens, UniProt P48029); settings: normal human monocytes and macrophages; read-out: Km of creatine transport; cited from earlier work
T1 construct: endogenous in cells; host or cells: normal human monocytes and macrophages
T1 sequence (P48029 1-635): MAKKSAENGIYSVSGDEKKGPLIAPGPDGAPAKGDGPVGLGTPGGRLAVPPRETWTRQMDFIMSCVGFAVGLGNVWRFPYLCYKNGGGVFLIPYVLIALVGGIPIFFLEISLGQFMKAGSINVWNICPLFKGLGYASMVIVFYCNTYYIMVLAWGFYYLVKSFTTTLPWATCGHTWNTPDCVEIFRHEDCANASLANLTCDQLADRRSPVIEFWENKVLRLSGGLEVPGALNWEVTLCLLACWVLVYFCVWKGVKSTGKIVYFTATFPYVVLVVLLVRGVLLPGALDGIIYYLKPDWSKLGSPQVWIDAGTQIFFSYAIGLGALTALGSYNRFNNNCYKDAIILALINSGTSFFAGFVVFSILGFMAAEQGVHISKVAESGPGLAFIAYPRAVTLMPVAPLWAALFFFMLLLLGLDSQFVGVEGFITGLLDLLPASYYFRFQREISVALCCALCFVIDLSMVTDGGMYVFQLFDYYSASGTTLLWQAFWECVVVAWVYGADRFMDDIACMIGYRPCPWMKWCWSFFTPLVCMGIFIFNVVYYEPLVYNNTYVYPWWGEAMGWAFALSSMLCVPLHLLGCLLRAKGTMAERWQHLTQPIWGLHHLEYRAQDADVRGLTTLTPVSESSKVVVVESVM

CRT KO mice [3] = experiment: Levels of cyclocreatine in the brain after supplementation; format: in vivo; settings: 9 weeks supplementation in drinking water, 0.286 mg/g body weight/day
Description: Regarding FIG. 3, CRT brain-specific knockout male mice (CRT′ or CRT KO mice) and their control littermates (CrTf1″5″) were generated by the methods known in the art (e.g., by using the Cre-lox system and homologous recombination as described in Sauer B., Methods, 1998, 14, 381-392; the strategy for targeting the gene deletion to the brain region was based on the data described in Casanova E. et al., Genesis 2001, 31, 37-42). […] A total 29 CRT KO male mice (CRT^/y) and 28 control male mice (CRT^flox/y) at 12 months of age were used in the cyclocreatine supplementation study. The mice were randomly assigned to one of three groups that were started on one of three treatments for 9 weeks: 1) cyclocreatine (C-Cr, CRT KO=7, control=5), 2) creatine (Cr, CRT KO=5, control=5), and 3) maltodextrine as placebo (P, CRT KO=5, control=5). […] Levels of cyclocreatine and creatine in the organs of CRT KO mice and their control littermates before cyclocreatine supplementation were measured by the methods known in the art (e.g., creatine content was measured as described in Conn R., Clin. Chem., 1960, 6, 537-548; and cyclocreatine content was measured as described in Griffith G. R., J Biol. Chem. 1976, 251(7), 2049-2054). […] Data is expressed as mean±SE. §P≦0.0001, §§P<0.00001.

CRT KO mice [4] = experiment: Phosphorylated metabolites in the brain by in vivo magnetic resonance spectroscopy; settings: after 9 weeks supplementation, in vivo MRS
Description: Regarding FIG. 3, CRT brain-specific knockout male mice (CRT′ or CRT KO mice) and their control littermates (CrTf1″5″) were generated by the methods known in the art (e.g., by using the Cre-lox system and homologous recombination as described in Sauer B., Methods, 1998, 14, 381-392; the strategy for targeting the gene deletion to the brain region was based on the data described in Casanova E. et al., Genesis 2001, 31, 37-42). […] A total 29 CRT KO male mice (CRT^/y) and 28 control male mice (CRT^flox/y) at 12 months of age were used in the cyclocreatine supplementation study. The mice were randomly assigned to one of three groups that were started on one of three treatments for 9 weeks: 1) cyclocreatine (C-Cr, CRT KO=7, control=5), 2) creatine (Cr, CRT KO=5, control=5), and 3) maltodextrine as placebo (P, CRT KO=5, control=5). Each treatment drug was supplied in the drinking water and the concentration was adjusted to 0.286 mg/g body weight/day, corresponding to the standard dose of creatine for human subjects (20 g/70 kg body weight/day). The levels of phosphorylated metabolites in the brains of the CRT KO and their control littermates were measured by in vivo magnetic resonance spectroscopy using the procedures well known in the art. […] Data is expressed as mean±SE,*P≦0.05, **P≦0.01.

CRT KO mice [5] = experiment: Morris Water Maze test; format: in vivo
Description: Regarding FIG. 3, CRT brain-specific knockout male mice (CRT′ or CRT KO mice) and their control littermates (CrTf1″5″) were generated by the methods known in the art (e.g., by using the Cre-lox system and homologous recombination as described in Sauer B., Methods, 1998, 14, 381-392; the strategy for targeting the gene deletion to the brain region was based on the data described in Casanova E. et al., Genesis 2001, 31, 37-42). […] A total 29 CRT KO male mice (CRT^/y) and 28 control male mice (CRT^flox/y) at 12 months of age were used in the cyclocreatine supplementation study. The mice were randomly assigned to one of three groups that were started on one of three treatments for 9 weeks: 1) cyclocreatine (C-Cr, CRT KO=7, control=5), 2) creatine (Cr, CRT KO=5, control=5), and 3) maltodextrine as placebo (P, CRT KO=5, control=5). […] Spatial learning and memory in the CRT KO mice and their control littermates before and after 9-week cyclocreatine supplementation was measured by the Morris Water Maze test, a procedure routinely used in behavioral neuroscience to study spatial learning and memory. […] The mouse swims around the pool in search of an exit while various parameters are recorded, e.g., the time spent in each quadrant of the pool and the time taken to reach the platform (latency). […] Data is expressed as mean±SE, *P≦0.05.

Compound | clinical or spectroscopic (1H MRS) improvement [1] | short-term memory (discrimination index) (CRT KO mice [2]) | Km (creatine transporter) | levels of cyclocreatine in the brains (CRT KO mice [3]) | levels of cyclocreatine and/or creatine phosphate in the brain (peak height ratio) (CRT KO mice [4]) | spatial learning and memory (CRT KO mice [5]; before and after 9-week supplementation) | latency in finding hidden platforms (CRT KO mice [5]; versus placebo treated CRT KO mice)
CN(CC(=O)O)C(=N)N [creatine] | without clinical or spectroscopic (^1H MRS) improvement | no significant changes | ~30 µM | – | – | – | –
NC1=NCCN1CC(=O)O [cyclocreatine] | – | normalizes the short-term memory | – | increased | increases the levels of cyclocreatine and/or creatine phosphate | improves spatial learning and memory | shorter latency
